# Data reported in ChEMBL document CHEMBL4420076, “Amylin and calcitonin receptor agonist” (2017).
# Numbered stars: 1 amine (or outer) side, 2 acyl side, 3 side chain; on linkers, the order of the positions; unused ones are H or OH. Peptide text beside a SMILES is read from it. * marks the point of attachment. C18 diacid = O=C(O)CCCCCCCCCCCCCCCCC(=O)*; γGlu = O=C(O)[C@H](CCC(=O)[*:2])N[*:1]
# What was measured:
# [1] = Terminal half life in Sprague-Dawley rat at 20 nmol/kg, sc by LC-MS analysis; type: ADME, organism-based; settings: in vivo, read-out: beta t1/2 (converted)
# [2] = Solubility in 100 mM glycylglycine buffer at pH 3.0 incubated for 18 hrs by UPLC analysis; type: physicochemical
# [3] = tested on: Rattus norvegicus; assay: Reduction in food intake in Sprague-Dawley rat at 3 nmol/kg measured 24 to 48 hrs post dose relative to control; type: functional; set-up: scale not given: the % may be the effect or the level left
# [4] = Stability in pH 7.5 buffer assessed as compound recovery at 1 uM by Thioflavin T based fluorescence assay; type: physicochemical; settings: read-out: Drug recovery
# [5] = Solubility in 100 mM bistrispropane buffer at pH 7.0 incubated for 18 hrs by UPLC analysis; type: physicochemical
# [6] = Dose normalized AUC in LYD pig at 1.6 mM, sc co-formulated with 1.6 mM liraglutide by LC-MS analysis; type: ADME, organism-based, Sus scrofa; settings: in vivo, 1600 µM
# [7] = Half life in LYD pig at 1.6 mM, sc co-formulated with 1.6 mM liraglutide by LC-MS analysis; type: ADME, organism-based, Sus scrofa; settings: in vivo
# [8] = target: T1, Amylin receptor AMY3; CALCR/RAMP3 (Homo sapiens, UniProt O60896+P30988); assay: Agonist activity at human amylin receptor expressed in BHK570 cells co-expressing RAMP3 assessed as increase in intracellular cAMP concentration incubated for 3 hrs in absence of albumin by CRE luciferase reporter gene assay; type: functional, cell-based
# T1 sequence (P30988 whole entry): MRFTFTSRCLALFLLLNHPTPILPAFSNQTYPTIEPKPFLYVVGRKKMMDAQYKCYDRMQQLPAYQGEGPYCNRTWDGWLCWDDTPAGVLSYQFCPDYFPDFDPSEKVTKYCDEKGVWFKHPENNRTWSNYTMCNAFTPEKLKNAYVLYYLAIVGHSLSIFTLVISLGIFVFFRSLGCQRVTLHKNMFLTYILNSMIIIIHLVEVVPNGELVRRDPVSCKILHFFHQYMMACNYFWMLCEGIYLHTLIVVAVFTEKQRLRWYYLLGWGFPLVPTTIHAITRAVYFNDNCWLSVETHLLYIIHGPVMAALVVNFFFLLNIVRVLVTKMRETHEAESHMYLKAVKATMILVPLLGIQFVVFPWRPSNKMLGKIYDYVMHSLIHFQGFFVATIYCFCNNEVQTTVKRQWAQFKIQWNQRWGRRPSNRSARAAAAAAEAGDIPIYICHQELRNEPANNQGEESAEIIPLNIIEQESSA
# T1 sequence (O60896 whole entry): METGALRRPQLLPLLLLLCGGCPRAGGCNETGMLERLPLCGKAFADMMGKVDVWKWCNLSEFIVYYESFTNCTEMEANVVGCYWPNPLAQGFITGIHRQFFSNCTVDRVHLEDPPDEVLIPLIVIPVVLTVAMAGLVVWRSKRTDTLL
# [9] = Solubility in 100 mM bistrispropane buffer at pH 8.0 incubated for 18 hrs by UPLC analysis; type: physicochemical
# [10] = Solubility in 100 mM bistrispropane buffer at pH 6.0 incubated for 18 hrs by UPLC analysis; type: physicochemical
# [11] = target: T2, Calcitonin receptor (Homo sapiens, UniProt P30988); assay: Agonist activity at human calcitonin receptor expressed in BHK570 cells assessed as increase in intracellular cAMP concentration incubated for 3 hrs in presence of 10% FBS by CRE luciferase reporter gene assay; type: functional, cell-based
# T2 sequence (P30988 whole entry): T1 sequence (P30988 whole entry)
# [12] = Half life in LYD pig at 1.6 mM, sc co-dosed with 1.6 mM liraglutide by LC-MS analysis; type: ADME, organism-based, Sus scrofa; settings: in vivo
# [13] = Solubility in 100 mM glycylglycine buffer at pH 4.0 incubated for 18 hrs by UPLC analysis; type: physicochemical
# [14] = Stability in pH 7.5 buffer assessed as lag time for fibril formation at 1 uM by Thioflavin T based fluorescence assay; type: physicochemical; settings: pH 7.5, 1 µM
# [15] = Solubility in 100 mM glycylglycine buffer at pH 5.0 incubated for 18 hrs by UPLC analysis; type: physicochemical
# [16] = Solubility in 100 mM bistrispropane buffer at pH 6.5 incubated for 18 hrs by UPLC analysis; type: physicochemical
# [17] = target: T2, Calcitonin receptor; assay: Agonist activity at human calcitonin receptor expressed in BHK570 cells assessed as increase in intracellular cAMP concentration incubated for 3 hrs in absence of albumin by CRE luciferase reporter gene assay; type: functional, cell-based
# [18] = tested on: Rattus norvegicus; assay: Reduction in food intake in Sprague-Dawley rat at 3 nmol/kg measured 0 to 24 hrs post dose relative to control; type: functional; set-up: scale not given: the % may be the effect or the level left
# [19] = target: T1, Amylin receptor AMY3; CALCR/RAMP3; assay: Agonist activity at human amylin receptor expressed in BHK570 cells co-expressing RAMP3 assessed as increase in intracellular cAMP concentration incubated for 3 hrs in presence of 10% FBS by CRE luciferase reporter gene assay; type: functional, cell-based
# [20] = Dose normalized AUC in LYD pig at 1.6 mM, sc co-dosed with 1.6 mM liraglutide by LC-MS analysis; type: ADME, organism-based, Sus scrofa; settings: in vivo, 1600 µM
# [21] = Solubility in 100 mM bistrispropane buffer at pH 7.5 incubated for 18 hrs by UPLC analysis; type: physicochemical
# [22] = tested on: Rattus norvegicus; assay: Reduction in body weight in Sprague-Dawley rat model of diet-induced obesity assessed as relative body weight at 3.7 ug/kg, sc dosed dosed once daily and co-treated with 0.1 mg/kg, sc liraglutide during 0 to 28 days and measured on day 28 relative to initial body weight (reference value: 98.8 +/- 0.8%); type: functional; set-up: scale not given: the % may be the effect or the level left
# [23] = tested on: Rattus norvegicus; assay: Reduction in body weight in Sprague-Dawley rat model of diet-induced obesity assessed as relative body weight at 3.7 ug/kg, sc dosed dosed once daily during 0 to 15 days and measured on day 15 relative to initial body weight (reference value: 98.8 +/- 0.8%); type: functional; set-up: scale not given: the % may be the effect or the level left
# [24] = tested on: Rattus norvegicus; assay: Reduction in body weight in Sprague-Dawley rat model of diet-induced obesity assessed as relative body weight at 3.7 ug/kg, sc dosed dosed once daily during 0 to 28 days and measured on day 28 relative to initial body weight (reference value: 99.8 +.- 1.1%); type: functional; set-up: scale not given: the % may be the effect or the level left
# [25] = tested on: Rattus norvegicus; assay: Reduction in body weight in Sprague-Dawley rat model of diet-induced obesity assessed as relative body weight at 3.7 ug/kg, sc dosed dosed once daily and co-treated with 0.1 mg/kg, sc liraglutide during 0 to 15 days and measured on day 15 relative to initial body weight (reference value: 98.8 +/- 0.8%); type: functional; set-up: scale not given: the % may be the effect or the level left
# [26] = target: T1, Amylin receptor AMY3; CALCR/RAMP3; assay: Displacement of [125I]-labeled rat amylin from human amylin receptor expressed in BHK tkts13 whole cells co-expressing RAMP3 incubated for 60 mins by scintillation proximity assay; type: cell-based
# [27] = tested on: Rattus norvegicus; assay: Reduction in body weight in Sprague-Dawley rat model of diet-induced obesity assessed as relative body weight at 0.1 mg/kg, sc dosed dosed once daily during 0 to 28 days and measured on day 28 relative to initial body weight (reference value: 99.8 +.- 1.1%); type: functional; set-up: scale not given: the % may be the effect or the level left
Structure (SMILES),solubility at 18 h [2] [µM],Activity [3] [%],solubility at 18 h [5] [µM],AUC/dose [6] [kg·h/L],half-life at 1600 µM [7] [h],EC50 [8] [nM],solubility at 18 h [9] [µM],solubility at 18 h [10] [µM],half-life at 1600 µM [12] [h],solubility at 18 h [13] [µM],solubility at 18 h [15] [µM],solubility at 18 h [16] [µM],EC50 [17] [nM],Activity [18] [%],AUC/dose [20] [kg·h/L],solubility at 18 h [21] [µM],other results
CC(C)C[C@H](NC(=O)[C@H](CCCCN)NC(=O)CNC(=O)[C@H](CC(C)C)NC(=O)[C@@H](NC(=O)[C@H](CS)NC(=O)[C@@H](NC(=O)[C@H](CO)NC(=O)[C@H](CC(C)C)NC(=O)[C@H](CC(N)=O)NC(=O)[C@H](CO)NC(=O)[C@@H](N)CS)[C@@H](C)O)C(C)C)C(=O)N[C@@H](CO)C(=O)N[C@@H](CCC(N)=O)C(=O)N[C@@H](CCC(=O)O)C(=O)N[C@@H](CC(C)C)C(=O)N[C@@H](Cc1cnc[nH]1)C(=O)N[C@@H](CCCCN)C(=O)N[C@@H](CC(C)C)C(=O)N[C@@H](CCC(N)=O)C(=O)N[C@H](C(=O)N[C@@H](Cc1ccc(O)cc1)C(=O)N1CCC[C@H]1C(=O)N[C@@H](CCCNC(=N)N)C(=O)N[C@H](C(=O)N[C@@H](CC(N)=O)C(=O)N[C@H](C(=O)NCC(=O)N[C@@H](CO)C(=O)NCC(=O)N[C@H](C(=O)N1CCC[C@H]1C(=O)O)[C@@H](C)O)[C@@H](C)O)[C@@H](C)O)[C@@H](C)O,,,,,,,,,,,,,,,,,half-life [1]: 1 h
CC(C)C[C@H](NC(=O)[C@H](C)NC(=O)[C@H](C)NC(=O)[C@@H](NC(=O)[C@H](CO)NC(=O)[C@H](CC(C)C)NC(=O)[C@H](CCC(=O)O)NC(=O)[C@H](CO)NC(=O)[C@H](C)NC(=O)CC[C@H](NC(=O)CCCCCCCCCCCCCCCCC(=O)O)C(=O)O)[C@@H](C)O)C(=O)NCC(=O)N[C@@H](CCCNC(=N)N)C(=O)N[C@@H](CC(C)C)C(=O)N[C@@H](CO)C(=O)N[C@@H](C)C(=O)N[C@@H](CCC(=O)O)C(=O)N[C@@H](CC(C)C)C(=O)N[C@@H](Cc1cnc[nH]1)C(=O)N[C@@H](CCC(=O)O)C(=O)N[C@@H](CC(C)C)C(=O)N[C@@H](C)C(=O)N[C@H](C(=O)N[C@@H](CC(C)C)C(=O)N1CCC[C@H]1C(=O)N[C@@H](CCCNC(=N)N)C(=O)N[C@H](C(=O)N[C@@H](CCC(=O)O)C(=O)N[C@H](C(=O)NCC(=O)N[C@@H](CO)C(=O)NCC(=O)N[C@@H](CO)C(=O)N1CCC[C@H]1C(N)=O)[C@@H](C)O)[C@@H](C)O)[C@@H](C)O ({C18 diacid-γGlu}-ASELSTAALGRLSAELHELATLPRTETGSGSP-NH2),≥ 200,78,≥ 200,656,133,0.016,≥ 200,≥ 200,129,≥ 200,≥ 200,≥ 200,0.017,82,624,≥ 200,remaining at 1 µM [4]: 100%; EC50 [11]: 0.011 nM; Time [14]: > 45 h; EC50 [19]: 0.026 nM
CC(C)C[C@H](NC(=O)[C@H](C)NC(=O)[C@H](C)NC(=O)[C@@H](NC(=O)[C@H](CO)NC(=O)[C@H](CC(C)C)NC(=O)[C@H](CCC(=O)O)NC(=O)[C@H](CO)NC(=O)[C@H](C)NC(=O)[C@H](CCC(=O)O)NC(=O)CCCCCCCCCCCCCCCCC(=O)O)[C@@H](C)O)C(=O)NCC(=O)N[C@@H](CCCNC(=N)N)C(=O)N[C@@H](CC(C)C)C(=O)N[C@@H](CO)C(=O)N[C@@H](C)C(=O)N[C@@H](CCC(=O)O)C(=O)N[C@@H](CC(C)C)C(=O)N[C@@H](Cc1cnc[nH]1)C(=O)N[C@@H](CCC(=O)O)C(=O)N[C@@H](CC(C)C)C(=O)N[C@@H](C)C(=O)N[C@H](C(=O)N[C@@H](CC(C)C)C(=O)N1CCC[C@H]1C(=O)N[C@@H](CCCNC(=N)N)C(=O)N[C@H](C(=O)N[C@@H](CCC(=O)O)C(=O)N[C@H](C(=O)NCC(=O)N1CCC[C@H]1C(=O)N[C@@H](CCC(=O)O)C(=O)N[C@@H](CO)C(=O)N1CCC[C@H]1C(N)=O)[C@@H](C)O)[C@@H](C)O)[C@@H](C)O ({C18 diacid}-EASELSTAALGRLSAELHELATLPRTETGPESP-NH2),≥ 200,60.67,≥ 200,732,67,0.008,≥ 200,≥ 200,67,≥ 200,≥ 200,≥ 200,0.005,79,712,≥ 200,Activity [22]: 83.2%; Activity [23]: 90.6%; Activity [24]: 88.9%; Activity [25]: 93.4%; IC50 [26]: 0.902 nM
CCCCCCCCCCCCCCCC(=O)N[C@@H](CCC(=O)NCCCC[C@H](NC(=O)[C@H](C)NC(=O)[C@H](C)NC(=O)[C@H](CCC(N)=O)NC(=O)CNC(=O)[C@H](CCC(=O)O)NC(=O)[C@H](CC(C)C)NC(=O)[C@H](Cc1ccc(O)cc1)NC(=O)[C@H](CO)NC(=O)[C@H](CO)NC(=O)[C@@H](NC(=O)[C@H](CC(=O)O)NC(=O)[C@H](CO)NC(=O)[C@@H](NC(=O)[C@H](Cc1ccccc1)NC(=O)[C@@H](NC(=O)CNC(=O)[C@H](CCC(=O)O)NC(=O)[C@H](C)NC(=O)[C@@H](N)Cc1cnc[nH]1)[C@@H](C)O)[C@@H](C)O)C(C)C)C(=O)N[C@@H](CCC(=O)O)C(=O)N[C@@H](Cc1ccccc1)C(=O)N[C@H](C(=O)N[C@@H](C)C(=O)N[C@@H](Cc1c[nH]c2ccccc12)C(=O)N[C@@H](CC(C)C)C(=O)N[C@H](C(=O)N[C@@H](CCCNC(=N)N)C(=O)NCC(=O)N[C@@H](CCCNC(=N)N)C(=O)NCC(=O)O)C(C)C)[C@@H](C)CC)C(=O)O [LIRAGLUTIDE],,,,,,,,,,,,,,,,,Activity [27]: 93.9%
